The results in this text go back to DBAASP.

The term MIC denotes the least concentration at which growth counts as inhibited. Low readings indicate greater potency, high ones weaker potency.

Structures are written as SMILES. Values after ≈ are worked out from the molar mass of the structure shown. Values joined by “and” are separate entries in the source; they are usually repeats but may differ in a detail not shown here. Equal entries are not always repeated. Where only a bound is given, the exact number is not on record here.

Experiment in all cases: ≥ marks a high value that may be exact or a test limit, other limits are often not marked, values filed in µg/mL are converted to µM
Assay [1] has as its system Bacillus subtilis ATCC 6633.
Assay [2] relates to Escherichia coli ATCC 25922.
The subject of assay [3] is Pseudomonas aeruginosa ATCC 27853.
Assay [4] relates to Saccharomyces cerevisiae CGMCC 2.3973.
Assay [5] deals with Staphylococcus aureus ATCC 25923.
For another assay, the system named is Escherichia coli D31.
Assay [6] concerns Klebsiella pneumoniae ATCC 700603.
Assay [7] has as its system Pseudomonas aeruginosa ATCC 10145.
Assay [8] concerns Staphylococcus aureus ATCC 27660.
Assay [9] relates to Staphylococcus aureus 3968.
Assay [10] deals with Staphylococcus aureus 5118.
The subject of assay [11] is Staphylococcus aureus ATCC 9144.
The test system of assay [12] is Staphylococcus aureus E4049.
Assay [13] concerns Bacillus subtilis KCTC 3068.
The test system of assay [14] is Enterococcus faecium ATCC 51559.
In assay [15] the test system is Escherichia coli KCTC 1682.
In assay [16] the test system is Pseudomonas aeruginosa CCARM 2095.
Assay [17] has as its system Pseudomonas aeruginosa CCARM 2109.
Assay [18] concerns Pseudomonas aeruginosa KCTC 1637.
For assay [19], the system named is Salmonella typhimurium KCTC 1926.
Assay [20] deals with Staphylococcus aureus CCARM 3089.
The subject of assay [21] is Staphylococcus aureus CCARM 3090.
For assay [22], the system named is Staphylococcus aureus CCARM 3095.
In assay [23] the test system is Staphylococcus epidermidis KCTC 1917.
Assay [24] has as its system Bacillus subtilis KCTC 1998.
The subject of assay [25] is Candida albicans KCTC 7270.
Assay [26] relates to Escherichia coli CCARM 1229.
Assay [27] relates to Escherichia coli CCARM 1238.
The test system of assay [28] is Listeria monocytogenes KCTC 3710.
In assay [29] the test system is Pseudomonas aeruginosa 4007.
Assay [30] concerns Pseudomonas aeruginosa 4891.
Assay [31] deals with Staphylococcus aureus CCARM 3518.
The subject of assay [32] is Trichosporon beigelii KCTC 7707.
Assay [33] relates to Staphylococcus aureus LAC.
Assay [34] relates to Erwinia amylovora PMV 6076.
Assay [35] concerns Pseudomonas syringae pv. actinidiae Psa3700.1.1.
Assay [36] relates to Pseudomonas syringae pv. syringae EPS 94.
Assay [37] has as its system Xanthomonas arboricola pv. pruni CFBP 5563.
Assay [38] concerns Xanthomonas campestris pv. Vesicatoria 2133-2.
Assay [39] relates to Xanthomonas fragariae Xf349-9A.

Regarding `CC[C@H](C)[C@H](NC(=O)CNC(=O)[C@@H](NC(=O)[C@H](CCCCN)NC(=O)[C@@H](NC(=O)[C@H](CCCCN)NC(=O)[C@H](CCCCN)NC(=O)[C@H](CC(=O)O)NC(=O)CNC(=O)[C@H](C)N)[C@@H](C)CC)[C@@H](C)CC)C(=O)N[C@@H](CC(N)=O)C(=O)NCC(=O)N[C@@H](Cc1ccccc1)C(=O)NCC(=O)N[C@@H](CCCN=C(N)N)C(=O)N[C@H](C(=O)NCC(=O)N[C@@H](CCCN=C(N)N)C(=O)N[C@@H](CC(C)C)C(=O)O)[C@@H](C)CC` [AGDKKIKIGINGFGRIGRL], the MIC in assay [1] is at least 254 µM; in [2] it was 31.8 µM (≈ 64 µg/mL); in [3] it was above 254 µM; in [4], at least 254 µM; in assay [5], 254 µM (≈ 512 µg/mL).

With `CC[C@H](C)[C@H](NC(=O)CNC(=O)[C@H](CCCCN)NC(=O)[C@H](Cc1ccccc1)NC(=O)[C@H](CC(C)C)NC(=O)[C@H](CCCCN)NC(=O)[C@H](CCCCN)NC(=O)[C@H](C)NC(=O)[C@H](CCCCN)NC(=O)[C@H](CCCCN)NC(=O)[C@H](Cc1c[nH]c2ccccc12)NC(=O)CNC(=O)[C@H](CCCCN)NC(=O)[C@H](C)NC(=O)[C@H](Cc1ccccc1)NC(=O)[C@@H](NC(=O)[C@H](CCCCN)NC(=O)[C@@H](NC(=O)[C@H](CC(C)C)NC(=O)[C@H](CCCCN)NC(=O)[C@@H](N)CCCCN)[C@@H](C)CC)C(C)C)C(=O)NCC(=O)O` [KKLIKVFAKGWKKAKKLFKGIG], the MIC in the assay with Escherichia coli D31 was found to be 0.94 µM (≈ 2.37 µg/mL); in assay [6], 1.88 µM (≈ 4.73 µg/mL); in [7] it was 1.88 µM (≈ 4.73 µg/mL); in assay [8], 0.47 µM (≈ 1.18 µg/mL).

Consider `CSCC[C@H](NC(=O)[C@H](C)NC(=O)[C@H](CC(C)C)NC(=O)[C@@H](N)CCCCN)C(=O)N[C@@H](CO)C(=O)N[C@@H](CCSC)C(=O)N[C@@H](CO)C(=O)N[C@@H](Cc1ccccc1)C(=O)N[C@@H](CC(N)=O)C(=O)N[C@@H](Cc1ccccc1)C(=O)N[C@H](C(=O)N[C@@H](Cc1ccccc1)C(=O)N[C@@H](Cc1ccc(O)cc1)C(=O)N[C@@H](Cc1ccccc1)C(=O)N[C@@H](CCSC)C(=O)N[C@H](C(=O)N[C@@H](CC(N)=O)C(=O)N[C@@H](Cc1ccccc1)C(=O)N[C@@H](CC(=O)O)C(=O)N[C@@H](CC(=O)O)C(=O)O)C(C)C)C(C)C` [KLAMSMSFNFVFYFMVNFDD], for which the MIC in [9] is at least 250 µM; in [10] it was at least 125 µM; in assay [11], at least 125 µM; in assay [12], 15.5 µM (≈ 38 µg/mL).

`CC[C@H](C)[C@H](NC(=O)[C@H](Cc1ccccc1)NC(=O)[C@H](CCCN=C(N)N)NC(=O)[C@@H](N)CCCCN)C(=O)N[C@@H](CCCCN)C(=O)N[C@@H](Cc1c[nH]c2ccccc12)C(=O)N[C@@H](Cc1ccc(O)cc1)C(=O)N[C@@H](CCCCN)C(=O)N[C@@H](C)C(=O)N[C@@H](Cc1c[nH]c2ccccc12)C(=O)N[C@@H](CC(N)=O)C(=O)N[C@@H](CCCCN)C(=O)N[C@@H](CCCCN)C(=O)N[C@@H](Cc1c[nH]c2ccccc12)C(=O)N[C@@H](CCCN=C(N)N)C(=O)N[C@@H](CCCCN)C(=O)N[C@@H](Cc1ccc(O)cc1)C(N)=O` [KRFIKWYKAWNKKWRKY]: the MIC was 8 µM (≈ 19.4 µg/mL) in [13]; 4 µM (≈ 9.72 µg/mL) in assay [14]; 4 µM and 8 µM in assay [15]; 4 µM (≈ 9.72 µg/mL) in assay [16]; 8 µM (≈ 19.4 µg/mL) in assay [17]; 2 µM (≈ 4.86 µg/mL) in assay [18]. Also, the MIC in assay [19] was determined as 2 µM (≈ 4.86 µg/mL); in assay [20] it was 2 µM (≈ 4.86 µg/mL); in assay [21] it was 2 µM (≈ 4.86 µg/mL); in assay [22] it was 2 µM (≈ 4.86 µg/mL); in [23], 4 µM (≈ 9.72 µg/mL).

In the case of `CC[C@H](C)[C@H](NC(=O)[C@H](CCCCN)NC(=O)[C@H](CCCCN)NC(=O)[C@@H](NC(=O)[C@H](C)NC(=O)[C@H](CCC(=O)O)NC(=O)[C@H](Cc1cnc[nH]1)NC(=O)[C@@H](NC(=O)CNC(=O)[C@H](CCC(N)=O)NC(=O)[C@H](Cc1ccccc1)NC(=O)[C@@H](NC(=O)[C@H](CCCCN)NC(=O)[C@H](CCCCN)NC(=O)[C@H](CC(C)C)NC(=O)[C@H](C)NC(=O)[C@H](CC(N)=O)NC(=O)[C@@H](N)CC(C)C)C(C)C)[C@@H](C)CC)[C@@H](C)CC)C(N)=O` [LNALKKVFQGIHEAIKKI], the MIC in assay [24] came out at 4 µM (≈ 8.2 µg/mL); in assay [25], 16 µM (≈ 32.8 µg/mL); in [2], 2 µM (≈ 4.1 µg/mL); in [26] it was 2 µM (≈ 4.1 µg/mL); in assay [27] it was 2 µM (≈ 4.1 µg/mL); in [28], 8 µM (≈ 16.4 µg/mL). The minimum inhibitory concentration (MIC) in assay [29] turned out to be 4 µM (≈ 8.2 µg/mL); in assay [30], 8 µM (≈ 16.4 µg/mL); in [3] it was 4 µM (≈ 8.2 µg/mL); in assay [19], 4 µM (≈ 8.2 µg/mL); in assay [5], 4 µM (≈ 8.2 µg/mL); in assay [21] it was 4 µM (≈ 8.2 µg/mL). Moreover, the values for the MIC in assay [31] and in [32] were 4 µM (≈ 8.2 µg/mL) and 16 µM (≈ 32.8 µg/mL), respectively.

On to `NC(N)=NCCC[C@H](NC(=O)[C@H](CCCN=C(N)N)NC(=O)[C@H](CCCN=C(N)N)NC(=O)[C@@H](N)CCCN=C(N)N)C(=O)N[C@@H](Cc1c[nH]c2ccccc12)C(=O)N[C@@H](Cc1c[nH]c2ccccc12)C(=O)N[C@@H](Cc1c[nH]c2ccccc12)C(=O)N[C@@H](Cc1c[nH]c2ccccc12)C(=O)N[C@@H](Cc1c[nH]c2ccccc12)C(=O)O` [RRRRWWWWW], for which the MIC in [2] amounted to 20.3 µM (≈ 32 µg/mL); in assay [33], 10.2 µM (≈ 16 µg/mL).

Consider `CC(C)[C@H](N)C(=O)N[C@@H](Cc1c[nH]c2ccccc12)C(=O)N[C@@H](CC(N)=O)C(=O)N[C@@H](CCC(N)=O)C(=O)N1CCC[C@H]1C(=O)N[C@H](C(=O)N[C@@H](CCCN=C(N)N)C(=O)NCC(=O)N[C@@H](Cc1ccccc1)C(=O)N[C@@H](CCCCN)C(=O)N[C@H](C(=O)N[C@@H](Cc1ccc(O)cc1)C(=O)N[C@@H](CCC(=O)O)C(=O)O)C(C)C)C(C)C` [VWNQPVRGFKVYE], for which the MIC in assay [34], in assay [35], in [36], in [37], in assay [38] and in assay [39] was at least 50 µM each time.
